Measurements taken from ChEMBL document CHEMBL1208746, “3-Cyano-5-fluoro-N-arylbenzamides as negative allosteric modulators of mGlu(5): Identification of easily prepared tool compounds with CNS exposure in rats” (Bioorg Med Chem Lett, 2010).
Activity calls are given as the source filed them. No cut-off for these calls is given here.

Experiments:
[1] = target: T1, Metabotropic glutamate receptor 5 (Rattus norvegicus, UniProt P31424); experiment: Antagonist activity at rat mGlu5 receptor expressed in HEK293A cells assessed as inhibition of glutamate-induced calcium mobilization; format: functional, cell-based, HEK293-A
T1 sequence (P31424 whole entry): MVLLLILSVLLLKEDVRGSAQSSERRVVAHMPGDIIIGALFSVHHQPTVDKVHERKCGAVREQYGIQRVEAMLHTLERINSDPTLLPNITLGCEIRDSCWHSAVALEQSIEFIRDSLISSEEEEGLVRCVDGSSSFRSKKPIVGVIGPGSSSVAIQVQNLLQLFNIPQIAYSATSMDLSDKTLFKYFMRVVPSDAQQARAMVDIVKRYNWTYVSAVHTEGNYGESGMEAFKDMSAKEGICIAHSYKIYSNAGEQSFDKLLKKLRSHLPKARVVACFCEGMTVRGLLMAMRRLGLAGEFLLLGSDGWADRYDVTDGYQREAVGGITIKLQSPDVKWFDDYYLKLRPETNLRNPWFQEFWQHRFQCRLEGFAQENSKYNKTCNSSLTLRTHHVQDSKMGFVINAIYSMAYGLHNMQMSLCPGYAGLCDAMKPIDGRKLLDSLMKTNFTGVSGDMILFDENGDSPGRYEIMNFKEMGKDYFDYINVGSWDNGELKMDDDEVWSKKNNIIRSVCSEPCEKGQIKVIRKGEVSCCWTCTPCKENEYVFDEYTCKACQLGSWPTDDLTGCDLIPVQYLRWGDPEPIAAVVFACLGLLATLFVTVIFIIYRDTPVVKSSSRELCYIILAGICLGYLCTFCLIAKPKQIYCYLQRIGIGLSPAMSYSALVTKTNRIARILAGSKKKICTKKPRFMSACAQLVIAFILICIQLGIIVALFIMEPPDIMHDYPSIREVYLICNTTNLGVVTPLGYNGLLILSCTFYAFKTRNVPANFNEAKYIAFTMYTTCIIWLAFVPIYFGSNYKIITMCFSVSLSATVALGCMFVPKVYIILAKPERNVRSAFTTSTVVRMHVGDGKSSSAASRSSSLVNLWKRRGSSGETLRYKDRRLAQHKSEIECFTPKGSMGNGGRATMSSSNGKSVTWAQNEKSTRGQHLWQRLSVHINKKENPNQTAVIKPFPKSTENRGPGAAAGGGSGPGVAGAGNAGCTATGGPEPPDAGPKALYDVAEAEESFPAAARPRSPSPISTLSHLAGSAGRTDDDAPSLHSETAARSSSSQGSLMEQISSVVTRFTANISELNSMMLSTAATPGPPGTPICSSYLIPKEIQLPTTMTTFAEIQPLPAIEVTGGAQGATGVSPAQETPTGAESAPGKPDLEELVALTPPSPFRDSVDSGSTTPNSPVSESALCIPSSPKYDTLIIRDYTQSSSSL

[2] = target: Metabotropic glutamate receptor 5 (Rattus norvegicus) (UniProt P31424); experiment: Antagonist activity at rat mGlu5 receptor expressed in HEK293A cells assessed as inhibition of glutamate-induced calcium mobilization at 30 uM relative to glutamate; format: functional, cell-based; conditions: HEK293-A
Sequence of Metabotropic glutamate receptor 5 (Rattus norvegicus) (P31424 21-1203 limits assumed): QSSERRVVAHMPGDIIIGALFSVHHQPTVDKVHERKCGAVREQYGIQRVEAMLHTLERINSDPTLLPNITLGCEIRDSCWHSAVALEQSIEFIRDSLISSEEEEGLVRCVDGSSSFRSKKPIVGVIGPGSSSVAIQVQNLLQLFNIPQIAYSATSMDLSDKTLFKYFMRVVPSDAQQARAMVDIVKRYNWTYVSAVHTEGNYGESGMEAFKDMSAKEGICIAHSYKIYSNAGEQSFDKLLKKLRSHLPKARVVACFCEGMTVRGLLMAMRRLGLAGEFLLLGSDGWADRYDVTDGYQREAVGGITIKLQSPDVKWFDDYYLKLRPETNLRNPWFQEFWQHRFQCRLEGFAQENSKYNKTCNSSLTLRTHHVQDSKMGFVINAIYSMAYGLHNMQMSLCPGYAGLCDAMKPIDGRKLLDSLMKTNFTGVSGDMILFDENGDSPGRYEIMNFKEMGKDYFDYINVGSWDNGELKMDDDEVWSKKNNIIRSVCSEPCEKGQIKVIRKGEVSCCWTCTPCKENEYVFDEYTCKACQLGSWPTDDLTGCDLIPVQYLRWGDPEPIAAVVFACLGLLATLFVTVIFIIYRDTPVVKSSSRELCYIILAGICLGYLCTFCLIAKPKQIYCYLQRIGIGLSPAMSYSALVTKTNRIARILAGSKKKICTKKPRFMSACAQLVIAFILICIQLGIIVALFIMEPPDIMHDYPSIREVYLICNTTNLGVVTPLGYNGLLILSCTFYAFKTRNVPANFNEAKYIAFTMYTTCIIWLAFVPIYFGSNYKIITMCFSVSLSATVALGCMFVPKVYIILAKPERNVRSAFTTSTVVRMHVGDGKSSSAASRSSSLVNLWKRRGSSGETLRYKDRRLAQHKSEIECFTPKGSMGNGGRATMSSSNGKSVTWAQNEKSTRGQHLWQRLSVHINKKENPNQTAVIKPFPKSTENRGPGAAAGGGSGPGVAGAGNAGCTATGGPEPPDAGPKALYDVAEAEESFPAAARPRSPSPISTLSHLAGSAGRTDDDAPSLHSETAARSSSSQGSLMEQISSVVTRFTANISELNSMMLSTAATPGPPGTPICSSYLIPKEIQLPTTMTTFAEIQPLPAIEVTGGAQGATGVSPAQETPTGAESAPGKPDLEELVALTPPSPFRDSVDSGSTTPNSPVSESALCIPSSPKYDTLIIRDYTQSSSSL

[3] = target: T1, Metabotropic glutamate receptor 5; experiment: Displacement of [3H]methoxy-PEPy from rat mGlu5 receptor expressed in HEK293A cells after 60 mins by scintillation counting; format: cell-based, HEK293-A
[4] = target: Metabotropic glutamate receptor 7 (Homo sapiens) (UniProt Q14831); experiment: Inhibition of mGlu7 receptor at 10 uM
[5] = Metabolic stability in rat liver microsomes assessed as compound remaining at 1 uM after 15 mins in presence of NADPH; format: ADME, Microsome; conditions: read-out: Stability
[6] = target: Metabotropic glutamate receptor 4 (Homo sapiens) (UniProt Q14833); experiment: Inhibition of mGlu4 receptor at 10 uM
Sequence of Metabotropic glutamate receptor 4 (Homo sapiens) (Q14833 whole entry): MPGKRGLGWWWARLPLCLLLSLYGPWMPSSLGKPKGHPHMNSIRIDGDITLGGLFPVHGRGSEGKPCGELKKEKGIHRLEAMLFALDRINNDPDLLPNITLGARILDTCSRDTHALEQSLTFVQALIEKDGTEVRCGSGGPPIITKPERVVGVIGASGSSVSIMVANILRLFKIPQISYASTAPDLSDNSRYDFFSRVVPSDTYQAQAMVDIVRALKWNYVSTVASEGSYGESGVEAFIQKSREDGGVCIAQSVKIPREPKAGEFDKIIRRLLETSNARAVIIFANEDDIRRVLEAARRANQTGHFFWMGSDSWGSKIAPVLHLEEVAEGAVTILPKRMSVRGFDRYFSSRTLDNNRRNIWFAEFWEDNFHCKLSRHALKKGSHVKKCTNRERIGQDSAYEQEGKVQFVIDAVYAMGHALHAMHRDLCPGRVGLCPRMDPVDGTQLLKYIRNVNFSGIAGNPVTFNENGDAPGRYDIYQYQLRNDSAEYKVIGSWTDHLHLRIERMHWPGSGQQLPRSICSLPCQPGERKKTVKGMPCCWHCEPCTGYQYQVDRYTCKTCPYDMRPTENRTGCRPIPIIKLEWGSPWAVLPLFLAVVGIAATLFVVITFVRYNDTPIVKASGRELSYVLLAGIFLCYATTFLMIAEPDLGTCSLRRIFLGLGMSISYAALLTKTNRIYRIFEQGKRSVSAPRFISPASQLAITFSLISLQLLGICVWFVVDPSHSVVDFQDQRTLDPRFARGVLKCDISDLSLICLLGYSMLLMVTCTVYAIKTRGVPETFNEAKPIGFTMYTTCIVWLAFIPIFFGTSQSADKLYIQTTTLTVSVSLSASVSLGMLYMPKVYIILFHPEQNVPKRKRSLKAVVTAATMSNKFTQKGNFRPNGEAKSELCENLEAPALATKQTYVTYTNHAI

[7] = target: Metabotropic glutamate receptor 1 (Homo sapiens) (UniProt Q13255); experiment: Inhibition of mGlu1 receptor at 10 uM
Sequence of Metabotropic glutamate receptor 1 (Homo sapiens) (Q13255 19-1194 limits assumed): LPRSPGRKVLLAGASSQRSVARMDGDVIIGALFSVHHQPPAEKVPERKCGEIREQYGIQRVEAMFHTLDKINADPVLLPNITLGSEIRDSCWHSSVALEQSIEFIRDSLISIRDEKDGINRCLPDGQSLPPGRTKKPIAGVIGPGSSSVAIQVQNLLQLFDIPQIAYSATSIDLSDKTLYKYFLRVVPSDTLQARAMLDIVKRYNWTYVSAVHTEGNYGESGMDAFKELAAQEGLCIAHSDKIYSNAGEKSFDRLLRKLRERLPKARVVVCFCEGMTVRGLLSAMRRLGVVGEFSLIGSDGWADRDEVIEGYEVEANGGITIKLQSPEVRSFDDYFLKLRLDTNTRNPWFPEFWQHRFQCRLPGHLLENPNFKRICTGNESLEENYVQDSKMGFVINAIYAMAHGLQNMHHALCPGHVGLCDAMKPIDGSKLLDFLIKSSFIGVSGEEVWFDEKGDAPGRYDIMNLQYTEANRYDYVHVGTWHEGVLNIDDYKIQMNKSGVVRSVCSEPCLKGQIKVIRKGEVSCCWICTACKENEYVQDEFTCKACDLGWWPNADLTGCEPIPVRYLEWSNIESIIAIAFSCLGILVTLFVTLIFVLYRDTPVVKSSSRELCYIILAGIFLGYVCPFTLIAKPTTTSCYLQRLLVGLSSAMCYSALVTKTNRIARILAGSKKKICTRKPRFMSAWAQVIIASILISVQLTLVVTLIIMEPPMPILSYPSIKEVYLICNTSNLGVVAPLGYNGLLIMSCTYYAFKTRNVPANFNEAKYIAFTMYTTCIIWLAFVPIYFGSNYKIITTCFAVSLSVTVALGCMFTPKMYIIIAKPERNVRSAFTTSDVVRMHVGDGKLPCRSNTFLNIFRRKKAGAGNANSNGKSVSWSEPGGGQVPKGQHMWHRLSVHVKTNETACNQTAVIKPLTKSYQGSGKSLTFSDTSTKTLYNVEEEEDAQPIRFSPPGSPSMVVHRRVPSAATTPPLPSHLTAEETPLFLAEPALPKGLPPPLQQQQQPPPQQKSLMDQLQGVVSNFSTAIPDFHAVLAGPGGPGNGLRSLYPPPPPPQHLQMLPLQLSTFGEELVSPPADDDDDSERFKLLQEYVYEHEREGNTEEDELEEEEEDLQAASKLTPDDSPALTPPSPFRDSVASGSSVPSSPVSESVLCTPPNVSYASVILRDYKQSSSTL

[8] = Metabolic stability in human liver microsomes assessed as compound remaining at 1 uM after 15 mins in presence of NADPH; format: ADME, Microsome; conditions: read-out: Stability
Plasma [9] = experiment: Protein binding in rat plasma by rapid equilibrium dialysis method; format: ADME, cell-free
[10] = target: Metabotropic glutamate receptor 3 (Homo sapiens) (UniProt Q14832); experiment: Inhibition of mGlu3 receptor at 10 uM
[11] = target: Metabotropic glutamate receptor 8 (Homo sapiens) (UniProt O00222); experiment: Inhibition of mGlu8 receptor at 10 uM
Plasma [12] = experiment: Protein binding in human plasma by rapid equilibrium dialysis method; format: ADME, cell-free
[13] = target: Metabotropic glutamate receptor 2 (Homo sapiens) (UniProt Q14416); experiment: Inhibition of mGlu2 receptor at 10 uM
[14] = AUC (0-4 hrs) in Sprague-Dawley rat brain at 10 mg/kg, ip; format: ADME, organism-based; set-up: time < 4 hr, dose 10 mg/kg, route intraperitoneal
[15] = Cmax in Sprague-Dawley rat brain at 10 mg/kg, ip after 0.25 to 4 hrs; format: ADME, organism-based; set-up: dose 10 mg/kg, route intraperitoneal
Plasma [16] = experiment: Cmax in Sprague-Dawley rat plasma at 10 mg/kg, ip after 0.25 to 4 hrs; format: ADME, organism-based; set-up: dose 10 mg/kg, route intraperitoneal; conditions: in vivo
Brain = experiment: Tmax in Sprague-Dawley rat brain at 10 mg/kg, ip after 0.25 to 4 hrs; format: ADME, organism-based; set-up: dose 10 mg/kg, route intraperitoneal; conditions: in vivo
Plasma [17] = experiment: Tmax in Sprague-Dawley rat plasma at 10 mg/kg, ip after 0.25 to 4 hrs; format: ADME, organism-based; set-up: dose 10 mg/kg, route intraperitoneal; conditions: in vivo
[18] = AUC (0-4 hrs) in Sprague-Dawley rat plasma at 10 mg/kg, ip; format: ADME, organism-based; set-up: time < 4 hr, dose 10 mg/kg, route intraperitoneal
[19] = Ratio of drug level brain to plasma in Sprague-Dawley rat at 10 mg/kg, ip; format: ADME, organism-based; set-up: dose 10 mg/kg, route intraperitoneal; conditions: brain and plasma

| SMILES | IC50 [1] | %max [2] | other results |
| --- | --- | --- | --- |
| N#Cc1cc(F)cc(C(=O)Nc2cccc(Cl)n2)c1 | 250 nM | 2.2% |  |
| N#Cc1cc(F)cc(C(=O)Nc2ccncc2)c1 | > 30000 nM |  |  |
| N#Cc1cc(F)cc(C(=O)Nc2cccc(F)c2)c1 | 2160 nM | 22.1% |  |
| CCc1cccc(NC(=O)c2cc(F)cc(C#N)c2)n1 | 505 nM | 1.7% |  |
| N#Cc1cc(F)cc(C(=O)Nc2ccon2)c1 | > 30000 nM |  |  |
| Cc1ccc(NC(=O)c2cc(F)cc(C#N)c2)cc1 | > 30000 nM |  |  |
| N#Cc1cc(F)cc(C(=O)NC2C3CC4CC(C3)CC2C4)c1 (stereo unspecified) | > 10000 nM | 34.7% |  |
| N#Cc1cc(F)cc(C(=O)Nc2cccnc2)c1 | > 30000 nM |  |  |
| Cc1nc(NC(=O)c2cc(F)cc(C#N)c2)sc1C | 594 nM | 2.4% |  |
| Cc1ccnc(NC(=O)c2cc(F)cc(C#N)c2)c1 | > 10000 nM | 38.6% |  |
| N#Cc1cc(F)cc(C(=O)Nc2nc(C3CC3)cs2)c1 | 900 nM | 1.5% |  |
| Cc1cccc(NC(=O)c2cc(F)cc(C#N)c2)c1 | 122 nM | 2.1% | Ki [3]: 100 nM; inhibition [4]: inactive; remaining at 0.25 h, 1 µM [5]: 69.7%; inhibition [6]: inactive; inhibition [7]: inactive; remaining at 0.25 h, 1 µM [8]: 19.5%; PPB (Plasma [9]): 95.3%; inhibition [10]: inactive; inhibition [11]: inactive; PPB (Plasma [12]): 98.3%; inhibition [13]: inactive |
| C#Cc1cccc(NC(=O)c2cc(F)cc(C#N)c2)c1 | 331 nM | 2.3% |  |
| N#Cc1cc(F)cc(C(=O)Nc2ccccc2)c1 | 5440 nM | 12.5% |  |
| COc1cccc(NC(=O)c2cc(F)cc(C#N)c2)n1 | 1510 nM | 17.3% |  |
| N#Cc1cc(F)cc(C(=O)Nc2ccccn2)c1 | 3010 nM | 5.4% |  |
| COc1cccc(NC(=O)c2cc(F)cc(C#N)c2)c1 | > 10000 nM | 35.5% |  |
| COc1ccccc1NC(=O)c1cc(F)cc(C#N)c1 | > 30000 nM |  |  |
| CC(C)(C)c1cccc(NC(=O)c2cc(F)cc(C#N)c2)c1 | > 30000 nM |  |  |
| CCc1cccc(NC(=O)c2cc(F)cc(C#N)c2)c1 | 4940 nM | 2.4% |  |
| Cc1cnc(NC(=O)c2cc(F)cc(C#N)c2)s1 | 863 nM | 17.5% |  |
| N#Cc1cc(F)cc(C(=O)Nc2cc(F)cc(Cl)c2)c1 | 1830 nM | 38.5% |  |

| SMILES | IC50 [1] | %max [2] | other results |
| --- | --- | --- | --- |
| Cc1ccccc1NC(=O)c1cc(F)cc(C#N)c1 | > 30000 nM |  |  |
| N#Cc1cc(F)cc(C(=O)NC2CCCCC2)c1 | > 30000 nM |  |  |
| N#Cc1cc(F)cc(C(=O)Nc2cc(Cl)ccc2F)c1 | 3780 nM | 29.8% |  |
| CS(=O)(=O)c1cccc(NC(=O)c2cc(F)cc(C#N)c2)c1 | > 30000 nM |  |  |
| N#Cc1cc(F)cc(C(=O)Nc2ccc(Cl)cc2)c1 | > 30000 nM |  |  |
| Cn1ccc(NC(=O)c2cc(F)cc(C#N)c2)n1 | > 10000 nM | 46.7% |  |
| N#Cc1cc(F)cc(C(=O)Nc2cccc(C(F)(F)F)c2)c1 | 543 nM | 0.9% |  |
| N#Cc1cc(F)cc(C(=O)Nc2ccccc2Cl)c1 | > 30000 nM |  |  |
| N#Cc1cc(F)cc(C(=O)Nc2ccc(F)cc2)c1 | > 10000 nM | 69.2% |  |
| N#Cc1cc(F)cc(C(=O)Nc2ccc(F)c(Cl)c2)c1 | 377 nM | 43% |  |
| N#Cc1cc(F)cc(C(=O)Nc2ccccc2F)c1 | > 30000 nM |  |  |
| Cc1cc(C)nc(NC(=O)c2cc(F)cc(C#N)c2)c1 | > 30000 nM |  |  |
| N#Cc1cc(F)cc(C(=O)Nc2cccc(Cl)c2F)c1 | 347 nM | 2.5% |  |
| N#Cc1cc(F)cc(C(=O)Nc2cccc(C(F)(F)F)n2)c1 | > 10000 nM | 19.6% |  |
| Cc1cccc(NC(=O)c2cc(F)cc(C#N)c2)n1 | 65 nM | 1.2% | Ki [3]: 157 nM; inhibition [4]: inactive; remaining at 0.25 h, 1 µM [5]: 46.5%; inhibition [6]: inactive; inhibition [7]: inactive; remaining at 0.25 h, 1 µM [8]: 7%; PPB (Plasma [9]): 84%; inhibition [10]: inactive; inhibition [11]: inactive; PPB (Plasma [12]): 89.9%; inhibition [13]: inactive |
| N#Cc1cccc(NC(=O)c2cc(F)cc(C#N)c2)c1 | 489 nM | 1.4% |  |
| COc1ccc(NC(=O)c2cc(F)cc(C#N)c2)cc1 | > 30000 nM |  |  |
| Cc1cccnc1NC(=O)c1cc(F)cc(C#N)c1 | > 30000 nM |  |  |
| CC(C)(C)c1csc(NC(=O)c2cc(F)cc(C#N)c2)n1 | > 10000 nM | 29.7% |  |
| N#Cc1cc(F)cc(C(=O)Nc2cccc(Cl)c2)c1 | 45 nM | 0.6% | Ki [3]: 206 nM; inhibition [4]: inactive; AUC(0-t) at 4 h [14]: 1710 ng·h/mL; Cmax [15]: 1090 ng/mL; remaining at 0.25 h, 1 µM [5]: 96.8%; inhibition [6]: inactive; inhibition [7]: inactive; Cmax (Plasma [16]): 970 ng/mL; remaining at 0.25 h, 1 µM [8]: 18%; Tmax (Brain): 15 min; Tmax (Plasma [17]): 15 min; PPB (Plasma [9]): 93.7%; AUC(0-t) at 4 h [18]: 1200 ng·h/mL; inhibition [10]: inactive; inhibition [11]: inactive; PPB (Plasma [12]): 97.1%; inhibition [13]: inactive; Kp [19]: 1.4 |
| N#Cc1cc(F)cc(C(=O)Nc2nccs2)c1 | > 10000 nM | 37.4% |  |
| Cc1csc(NC(=O)c2cc(F)cc(C#N)c2)n1 | 59 nM | 1% | Ki [3]: 102 nM; inhibition [4]: inactive; AUC(0-t) at 4 h [14]: 73000 ng·h/mL; Cmax [15]: 28800 ng/mL; remaining at 0.25 h, 1 µM [5]: 89.9%; inhibition [6]: inactive; inhibition [7]: inactive; Cmax (Plasma [16]): 7650 ng/mL; remaining at 0.25 h, 1 µM [8]: 70.3%; Tmax (Brain): 15 min; Tmax (Plasma [17]): 15 min; PPB (Plasma [9]): 92.4%; AUC(0-t) at 4 h [18]: 17800 ng·h/mL; inhibition [10]: inactive; inhibition [11]: inactive; PPB (Plasma [12]): 98.4%; inhibition [13]: inactive; Kp [19]: 4.1 |
